In brackets after ≈: the same amount, converted by molar mass.
How the values were obtained:
S. aureus USA300∆pbp4 = test: MIC testing, strain USA300∆pbp4; format: cell-based, Staphylococcus aureus; details: for MIC: Staphylococcus aureus, USA300, read-out: Minimum inhibitory concentration
Experimental: (§1) The approach used was to initially search for compounds that reverse the antibiotic resistance profile of wild type cells to that of a pbp4 mutant. To define screening conditions three strains were employed, a wild type USA300 MRSA strain, an isogenic pbp4 deletion strain, and a complemented strain harboring a plasmid wildtype pbp4 copy. The antibiotic susceptibility profile of each strain was measured to determine the magnitude with which PBP4 affects resistance to various antibiotics (Table 1). […]. We anticipated that the greater dynamic range of the latter could provide a means to reliably screen for agents that inhibit PBP4 function. […].
(§2) S. aureus strain USA300 is a predominant cause of U.S. community-associated MRSA infections, whereas strain COL is a commonly studied hospital-associated MRSA strain. The S. aureus USA300 pbp4-null strain (USA300Δpbp4) and PBP4 complementation strain (USA300∆pbp4 pPBP4) have been previously described. Strain COLn is a laboratory derived tetracycline susceptible derivative of COL, whereas COLnex is a methicillin susceptible COLn derivative that has been cured of SCCmec thereby removing the mecA, which encodes PBP2a, and has been previously described. Strain CRB is a well-studied MRSA COLnex derivative that contains two amino acid substitutions (E183A and F241R) near the PBP4 active site and a 36-bp duplication 290-bp upstream of the pbp4 open reading frame leading to 20–40-fold overexpression of the gene. All strains were grown in Mueller Hinton (MH) broth at 37 °C, as indicated. Penicillin, streptomycin, ciprofloxacin, mupirocin, meropenem, and mitomycin C were purchased from Fisher Scientific (Waltham, MA, USA), whereas ceftobiprole was obtained from MedChemExpress LLC (Monmouth Junction, NJ, USA). The 30,000-member […]-EXP small molecule chemical library (Blocks 3–5) used in these studies was purchased from ChemBridge Corporation (San Diego, CA, USA).

S. aureus USA300 = test: Minimum inhibitory concentration (MIC) testing, strain USA300; format: cell-based, Staphylococcus aureus; details: for MIC: Staphylococcus aureus, USA300, read-out: Minimum inhibitory concentration; for Fold increase in resistance provided by PBP4: USA300 versus USA300∆pbp4 MIC; for Minimum inhibitory concentration: strain USA300
Experimental: as §1, §2

S. aureus CRB = test: MIC testing, strain CRB (PBP4 overproducer); format: cell-based, Staphylococcus aureus; details: for MIC: Staphylococcus aureus, read-out: Minimum inhibitory concentration, strain CRB
Experimental: (§3) To further evaluate their potential PBP4 inhibitor activity, prioritized compounds were tested for their ability to reverse PBP4 mediated antibiotic resistance in another S. aureus background using three isogenic strains that became available during our study (generous gift from Dr. S. Chatterjee; University of Maryland). These strains included: (1) COLnex, which is a methicillin susceptible strain, (2) CRB, a methicillin/ceftobiprole-resistant strain of COLnex that overproduces PBP4, and (3) CRB∆pbp4, a methicillin susceptible strain of CRB lacking the pbp4 gene.
as §2

S. aureus COLnex = test: MIC testing, strain COLnex; format: cell-based; details: Staphylococcus aureus, read-out: Minimum inhibitory concentration
Experimental: as §3, §2

S. aureus CRB∆pbp4 = test: MIC testing, strain CRB∆pbp4; format: cell-based; details: Staphylococcus aureus, read-out: Minimum inhibitory concentration
Experimental: as §3, §2

[1] = tested on: S. aureus USA300∆pbp4 pPBP4; test: microbe, parasite or virus in culture; format: cell-based; details: Staphylococcus aureus, USA300, read-out: Minimum inhibitory concentration
recombinant PBP4 = recombinant PBP4 (Bacillus subtilis, UniProt P40750); test: Gel electrophoresis BOCILLIN FL labeling of PBP4; format: binding; details: for Effect of preincubation on PBP4 BOCILLIN FL labeling (gel-based): 50-5000 µM, kanamycin 2000 µM or 5000 µM; for PBP4 BOCILLIN FL binding inhibition (gel-based) at low concentration: concentrations below 50 µM
Experimental: A second, yet lower resolution, approach was used to verify the impact of 9314848 on PBP4 substrate binding in which the protein was preincubated with compound or control antibiotics then labeled with the BOCILLIN FL and resulting fluorescent labeled protein was visualized following gel electrophoresis.
(§4) The ability of putative PBP4 inhibitors to impact the active site of recombinant PBP4 was assessed using two previously established BOCILLIN-FL Penicillin (Penicillin V conjugated to BODIPY fluorescent dye) binding assays. First, fluorescence polarization assays were performed as previously described, but with minor modifications. Briefly, the indicated amount of the putative PBP4 inhibitor or control antibiotic was incubated with 1 µM recombinant B. subtilis PBP4 or S. aureus PBP2a in potassium phosphate buffer (40 mM K2HPO4 and 10 mM KH2PO4) for 1 h in black 96-well microtiter plates (Corning Life Sciences, Corning, NY, USA). Following incubation, 1 µM (final concentration) BOCILLIN FL penicillin was added, and the mixture was incubated for 30 min. BOCILLIN FL fluorescence polarization was measured at (495 nm excitation and 545 nm emission) in a SpectraMax M5 multimode plate reader (Molecular Devices, San Jose, CA, USA). All assays were repeated at least 8 times, averaged, and values falling outside of 2 standard deviations were considered outliers. The resulting data were plotted as percentage BOCILLIN FL binding inhibition = (T/U) × 100; T = FL polarization of ((PBP4+ BOCILLIN FL) − (PBP4+ BOCILLIN FL + inhibitor compound)), U = FL polarization of ((PBP4 + BOCILLIN FL) − (BOCILLIN FL)). Second, gel electrophoresis and fluorescence detection was used to measure BOCILLIN FL labeling of PBP4 treated with the known PBP4 inhibitor cefoxitin (positive control), kanamycin (negative control) or 9314848 (test compound), as previously described but with minor modifications. Briefly, 1 µM of recombinant PBP4 was mixed with 0, 50, 500, 2000, or 5000 µM 9314848 or control antibiotic in 50 mM phosphate buffer (pH 7.4) and incubated at 37 °C for 30 min. Next 40 μM of BOCILLIN FL was added to the reaction mixture and incubated for an additional 30 min at 37 °C. Reactions were stopped by adding 5× SDS-PAGE gel loading dye, heated at 100 °C for 3 min and separated by electrophoresis in 12% SDS-PAGE (2 h, 120 Volts). BOCILLIN FL labeled PBP4 was imaged at λ = 365 nm using a BioRad Gel Doc EZ Imaging system and the gel was then subsequently stained with Bio-safe Coomassie Brilliant Blue stain (BioRad, Hercules, CA, USA) to measure the amount of protein present in each reaction condition and analyzed using NIH-ImageJ software. The percent BOCILLIN FL binding was calculated by first normalizing the protein present in each reaction condition to that of untreated control and subsequently applying each reaction’s protein normalization factor to each reaction’s fluorescent signal. The percentage BOCILLIN FL binding inhibition was then calculated as the normalized band intensity of antibiotic/compound treated sample as compared to the control sample (PBP4 + BOCILLIN FL in the absence of compound).

[2] = target: recombinant Bacillus subtilis PBP4 (Bacillus subtilis, UniProt P40750); test: BOCILLIN FL fluorescence polarization displacement assay, PBP4; format: binding; details: for Effect of preincubation on BOCILLIN FL binding to PBP4 (fluorescence polarization): 50 µM, 1 µM PBP4
Experimental: To more directly evaluate whether 9314848 is likely to affect PBP4 function, the compound’s ability to bind recombinant PBP4 was measured using BOCILLIN FL fluorescence polarization displacement assays. The premise for the assay is that the fluorescence polarization of the fluorescently labeled β-lactam, penicillin V (BOCILLIN FL), will increase upon binding to its cognate target (i.e., PBP4). Further, compounds that bind PBP4 and inhibit its function would impede BOCILLIN FL binding thereby allowing us to assess the protein binding affinity of 9314848 using a simple fluorescence reduction assay.
To determine whether the assay is amenable to measuring the binding properties of a compound that is known to bind PBP4 vs. a compound that is not expected to bind the protein we performed fluorescence polarization assays in which PBP4 was preincubated with either the β-lactam ampicillin, or the aminoglycoside kanamycin.
A dose response study was conducted (Figure 4B) in which PBP4 was preincubated with 0, 3.125, 6.25, 12.5, 25, or 50 µM of ampicillin, kanamycin, or 9314848.
as §4, with “First,” for “The ability of putative PBP4 inhibitors to impact the active site of recombinant PBP4 was assessed using two previously established BOCILLIN-FL Penicillin (Penicillin V conjugated to BODIPY fluorescent dye) binding assays. First,”, “All assays were repeated at least 8 times, averaged, and values falling outside of 2 standard deviations were considered outliers.” left out

recombinant PBP4, sequence (P40750 22-624): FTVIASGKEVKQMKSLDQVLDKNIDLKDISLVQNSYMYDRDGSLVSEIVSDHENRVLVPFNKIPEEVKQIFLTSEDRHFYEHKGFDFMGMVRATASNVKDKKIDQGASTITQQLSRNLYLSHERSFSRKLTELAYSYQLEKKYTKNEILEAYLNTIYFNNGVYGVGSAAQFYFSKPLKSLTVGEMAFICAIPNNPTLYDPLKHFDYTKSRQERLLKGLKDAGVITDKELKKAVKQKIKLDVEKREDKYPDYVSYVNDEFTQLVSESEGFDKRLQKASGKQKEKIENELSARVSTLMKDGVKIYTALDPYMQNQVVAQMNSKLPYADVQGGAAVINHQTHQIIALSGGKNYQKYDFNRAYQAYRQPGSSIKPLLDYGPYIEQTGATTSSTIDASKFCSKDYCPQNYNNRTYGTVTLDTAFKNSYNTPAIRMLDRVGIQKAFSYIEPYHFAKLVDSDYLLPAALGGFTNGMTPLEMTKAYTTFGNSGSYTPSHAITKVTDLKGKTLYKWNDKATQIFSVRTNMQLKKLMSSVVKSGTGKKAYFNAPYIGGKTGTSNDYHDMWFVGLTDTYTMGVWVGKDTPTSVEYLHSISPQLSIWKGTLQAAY
recombinant Bacillus subtilis PBP4, sequence (P40750 22-624): as above

Row | Compound | MIC (S. aureus USA300∆pbp4) [µg/mL] | Minimum inhibitory concentration (S. aureus USA300∆pbp4; strain USA300∆pbp4) [µg/mL] | MIC (S. aureus USA300) [µg/mL] | Fold increase in resistance provided by PBP4 (S. aureus USA300) | Minimum inhibitory concentration (S. aureus USA300) [µg/mL] | MIC (S. aureus CRB) [µg/mL] | MIC (S. aureus COLnex) [µg/mL] | MIC (S. aureus CRB∆pbp4) [µg/mL] | MIC [1] [µg/mL] | Effect of preincubation on PBP4 BOCILLIN FL labeling (gel-based) (recombinant PBP4) | PBP4 BOCILLIN FL binding inhibition (gel-based) at low concentration (recombinant PBP4) | Effect of preincubation on BOCILLIN FL binding to PBP4 (fluorescence polarization) [2] | PBP4 BOCILLIN FL binding inhibition, dose response ([2]; 0, 3.125, 6.25, 12.5, 25, or 50 µM) | Minimum inhibitory concentration (S. aureus CRB; strain CRB) [µg/mL]
1 | O=C(O)c1cn(C2CC2)c2cc(N3CCNCC3)c(F)cc2c1=O [CIP, ciprofloxacin] | 1 (≈ 3.02 µM) | 1 (≈ 3.02 µM) | 4 (≈ 12.1 µM) | ~ 4 fold | 4 (≈ 12.1 µM) | 0.5 (≈ 1.51 µM) | 0.25 (≈ 0.754 µM) | 0.25 (≈ 0.754 µM) |  |  |  |  |  | 
2 | C[C@H]1COc2c(N3CCN(C)CC3)c(F)cc3c(=O)c(C(=O)O)cn1c23 [LEV, levofloxacin] | 0.5 (≈ 1.38 µM) |  | 1 (≈ 2.77 µM) |  |  | 0.5 (≈ 1.38 µM) | 0.25 (≈ 0.692 µM) | 0.25 (≈ 0.692 µM) | 1 (≈ 2.77 µM) |  |  |  |  | 
3 | C[C@@H](O)[C@H]1C(=O)N2C(C(=O)O)=C(S[C@@H]3CN[C@H](C(=O)N(C)C)C3)[C@H](C)[C@H]12 [MER, meropenem] | 2 (≈ 5.22 µM) |  | 4 (≈ 10.4 µM) | 2 fold | 4 (≈ 10.4 µM) | 64 (≈ 167 µM) | 1 (≈ 2.61 µM) | 1 (≈ 2.61 µM) | 4 (≈ 10.4 µM) |  |  |  |  | 
4 | CN(C)c1ccc(O)c2c1C[C@H]1C[C@H]3[C@H](N(C)C)C(O)=C(C(N)=O)C(=O)[C@@]3(O)C(O)=C1C2=O [MIN, minocycline] | 0.5 (≈ 1.09 µM) |  | 0.5 (≈ 1.09 µM) |  |  | 0.5 (≈ 1.09 µM) | 0.5 (≈ 1.09 µM) | 0.5 (≈ 1.09 µM) | 0.5 (≈ 1.09 µM) |  |  |  |  | 
5 | C/C(=C\C(=O)OCCCCCCCCC(=O)O)C[C@@H]1OC[C@H](C[C@@H]2O[C@H]2[C@@H](C)[C@H](C)O)[C@@H](O)[C@H]1O [MUP, mupirocin] | 0.125 (≈ 0.25 µM) |  | 0.125 (≈ 0.25 µM) |  |  | 0.03 (≈ 0.0599 µM) | 0.03 (≈ 0.0599 µM) | 0.03 (≈ 0.0599 µM) | 0.125 (≈ 0.25 µM) |  |  |  |  | 
6 | CCOc1ccc2ccccc2c1C(=O)N[C@@H]1C(=O)N2[C@@H]1SC(C)(C)[C@@H]2C(=O)O [NAF, nafcillin] | 4 (≈ 9.65 µM) |  | 8 (≈ 19.3 µM) | 2 fold | 8 (≈ 19.3 µM) | > 128 | 0.25 (≈ 0.603 µM) | 0.25 (≈ 0.603 µM) | 8 (≈ 19.3 µM) |  |  |  |  | 
7 | CC1(C)S[C@@H]2[C@H](NC(=O)[C@H](N)c3ccccc3)C(=O)N2[C@H]1C(=O)O [ampicillin] |  |  |  |  |  |  |  |  |  | reduced the protein’s ability to bind the fluorescent substrate | did not reproducibly demonstrate BOCILLIN FL binding inhibition | limited BOCILLIN FL binding |  | 
8 | CO[C@@]1(NC(=O)Cc2cccs2)C(=O)N2C(C(=O)O)=C(COC(N)=O)CS[C@@H]21 [cefoxitin] |  |  |  |  |  |  |  |  |  | reduced the protein’s ability to bind the fluorescent substrate | did not reproducibly demonstrate BOCILLIN FL binding inhibition |  |  | 
9 | NC[C@H]1O[C@H](O[C@H]2[C@H](O)[C@@H](O[C@H]3O[C@H](CO)[C@@H](O)[C@H](N)[C@H]3O)[C@H](N)C[C@@H]2N)[C@H](O)[C@@H](O)[C@@H]1O [kanamycin] |  |  |  |  |  |  |  |  |  | did not significantly impact |  | had no impact on BOCILLIN FL binding | no inhibitory effect | 
10 | colistin |  |  |  |  | 128 |  |  |  |  |  |  |  |  | 128

— publication PMC9598407, “Identification of Staphylococcus aureus Penicillin Binding Protein 4 (PBP4) Inhibitors” (Antibiotics, 2022)
